According to patent US20230390326A1, “COMPOSITION COMPRISING CATIONIC SUBSTANCE, AND USE FOR SAME” (SUNGKWANG MEDICAL FOUNDATION, priority 2020, published 2023):
Peptide text beside a SMILES is read from it. * marks the point of attachment. Cbz = O=C(OCc1ccccc1)*

Legend:
[1] = system: perforin protein; assay: Western blot of perforin protein in cultured NK cells; type: cell-based; details: NK cells treated with MG132 to prevent intracellular protein degradation
Description: Protein extracts from NK cells were separated using 10% SDS-PAGE, and transferred to a polyvinylidene difluoride amersham Biosciences membrane for 90 minutes at the voltage of 120 V. The membrane was blocked in 3% bovine serum albumin (BSA)-containing tris-buffered saline-Tween [TBST; 0.2 M NaCl, 0.1% Tween-20, and 10 mM Tris (pH 7.4)] for 1 hour. The blocked membrane was incubated with a rabbit polyclonal anti-Perforin antibody (1:1000; ab180773, abcam) or a rabbit monoclonal anti-GAPDH antibody (1:1000; […], Cell signaling). After incubation, the membrane was incubated with anti-rabbit polyclonal IgG (1:5000; #7074, Cell Signaling Technology) for 1 hour at room temperature. After each step, the membrane was washed several times using TBST and bound antibodies were detected using an enhanced chemiluminescence detection system (Thermo Fisher Scientific Biosciences) according to manufacturer instructions In order to determine whether […] increases the amount of intracellular perforin, the NK cells of Example 1 were treated with 5 μg/ml of polyethylenimine, and cultured over time (0 hour, 3 hour, 6 hour, 12 hours, 24 hours, or 48 hours), and then Western blotting was performed on the cultured NK cells to identify the amount of granzyme B and perforin protein. […]

[2] = system: triple negative breast cancer cell line MDA_MB231; assay: In vitro assay of inducing activity of natural killer cells (CFSE-7AAD assay, apoptosis of target cells); type: cell-based; details: NK cells cultured 48 hours with the substance, then mixed with MDA_MB231 at E:T 10:1 for 4 hours; target only 1.32, NK cells only 21.36
Description: Green fluorescence-labeled MDA MB 231 cells and NK cells were put into a 1.5 ml eppendorf tube in respective ratios, mixed, and reacted in a 37° C., CO2 5% incubator for 4 hours. After the reaction was over, the cells were stained with 7AAD (Invitrogen A1310) for 20 minutes and fixed. Through flow cytometry, the mixed cells were divided into two cell populations according to the presence or absence of green fluorescence, and the percentage of dead cells was measured and compared by group to analyze the activity.
In order to confirm the ability of […] to induce the activity of NK cells according to molecular weight and type, the NK cells of Example 1 were cultured for 48 hours after mixing with various molecular weights and types of polyethylenimine or with a control group.
Next, the cultured NK cells were washed, and re-suspended in a fresh culture medium. Thereafter, the NK cells and triple negative breast cancer cell line MDA_MB231 were mixed in an effector (E):target (T) ratio of 10:1 and cultured for 4 hours. Finally, the degree of apoptosis of the target cells in the cultured cells was quantitatively analyzed using the CFSE-7AAD assay.

CC(C)C[C@@H](C=O)NC(=O)[C@H](CC(C)C)NC(=O)[C@H](CC(C)C)NC(=O)OCc1ccccc1 [MG132] (Cbz-Leu-Leu-Leu-aldehyde)
amount of perforin protein [1]: increased

Protamine
degree of apoptosis of target cells [2]: 25.31
